{"source": "patent US20060089335A1", "about": "“Compositions and methods for enhancing cognitive function and synaptic plasticity” (priority 2003, published 2006)", "key": {"[1]": {"target": "NMDA receptors (NR2B-containing) (Rattus norvegicus, UniProt P35439+Q00960)", "sequence (Q00960 27-1482, other chains not shown)": "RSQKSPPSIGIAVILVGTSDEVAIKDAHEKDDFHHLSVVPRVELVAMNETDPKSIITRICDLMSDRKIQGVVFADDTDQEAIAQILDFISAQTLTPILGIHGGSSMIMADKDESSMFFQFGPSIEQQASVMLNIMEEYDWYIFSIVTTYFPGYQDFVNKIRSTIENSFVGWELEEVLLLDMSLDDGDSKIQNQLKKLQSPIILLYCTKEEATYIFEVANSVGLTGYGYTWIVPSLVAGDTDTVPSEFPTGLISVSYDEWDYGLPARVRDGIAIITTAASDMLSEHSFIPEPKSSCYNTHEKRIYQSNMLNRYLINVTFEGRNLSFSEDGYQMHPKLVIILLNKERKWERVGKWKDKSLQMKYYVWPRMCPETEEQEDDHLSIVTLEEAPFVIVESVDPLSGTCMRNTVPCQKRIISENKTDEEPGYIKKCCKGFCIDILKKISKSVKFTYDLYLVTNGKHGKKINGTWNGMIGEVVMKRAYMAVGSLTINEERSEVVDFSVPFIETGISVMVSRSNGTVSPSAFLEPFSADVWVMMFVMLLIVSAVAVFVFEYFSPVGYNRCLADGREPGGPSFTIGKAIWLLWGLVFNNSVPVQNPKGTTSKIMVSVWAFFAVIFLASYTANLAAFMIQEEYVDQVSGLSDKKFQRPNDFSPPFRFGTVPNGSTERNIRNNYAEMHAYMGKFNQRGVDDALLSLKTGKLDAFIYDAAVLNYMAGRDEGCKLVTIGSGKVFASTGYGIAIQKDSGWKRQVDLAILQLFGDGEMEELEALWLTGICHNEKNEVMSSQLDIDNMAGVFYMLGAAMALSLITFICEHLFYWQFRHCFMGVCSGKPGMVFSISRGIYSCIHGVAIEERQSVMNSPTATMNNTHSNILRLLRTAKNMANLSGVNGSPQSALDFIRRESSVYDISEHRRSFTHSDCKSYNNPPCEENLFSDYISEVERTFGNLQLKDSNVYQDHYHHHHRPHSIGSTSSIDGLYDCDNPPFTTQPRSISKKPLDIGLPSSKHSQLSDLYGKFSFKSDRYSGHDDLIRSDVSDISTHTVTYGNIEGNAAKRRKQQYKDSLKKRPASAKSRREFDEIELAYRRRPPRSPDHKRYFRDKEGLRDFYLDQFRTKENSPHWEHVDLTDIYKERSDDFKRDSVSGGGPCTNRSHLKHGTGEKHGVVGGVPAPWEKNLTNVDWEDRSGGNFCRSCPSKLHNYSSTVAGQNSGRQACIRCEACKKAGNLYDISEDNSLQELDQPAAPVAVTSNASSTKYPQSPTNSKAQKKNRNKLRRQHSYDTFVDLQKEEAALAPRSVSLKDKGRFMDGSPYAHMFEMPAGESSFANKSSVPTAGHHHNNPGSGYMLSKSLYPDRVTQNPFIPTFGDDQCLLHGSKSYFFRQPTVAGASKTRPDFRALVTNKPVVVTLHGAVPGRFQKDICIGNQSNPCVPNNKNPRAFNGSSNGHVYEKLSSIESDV", "test": "evoked NMDA currents ([…]), double-perforated patch", "type": "cell-based", "procedure": "Electrophysiology. Dual whole cell perforated patch clamp recordings were made on two interconnected cultured hippocampal pyramidal neurons. Perforated patch pipettes were front-filled with a solution containing (in mM): CsOH, 127; D-gluconic acid, 127; CsCl, 4; HEPES, 10; NaCl, 8; EGTA, 0.4; pH was adjusted to 7.25 with CsOH, and then back-filled with the same solution containing […] amphotericin B (Sigma, St. Louis, Mo.). Extracellular solution contained (in mM): NaCl, 145; KCl, 3; glucose, 15; HEPES, 10; MgCl2, 0.8-1.2; CaCl2, 1.2; 0.005 glycine (Sigma), 0.05 picrotoxin (Sigma); pH adjusted to 7.4 with NaOH. MgCl2 concentration was matched to its concentration in culture medium. In experiments where effects of drugs on neuronal activity were quantified (FIG. 4D), recordings were done in culture medium (with HEPES replacing bicarbonate/CO2 to maintain pH). All experiments were performed at room temperature. For assaying synaptic connectivity, each neuron was stimulated by 1 ms step depolarization from −70 to +30 mV in voltage-clamp mode. Only neurons with monosynaptic connections were used. […] Recordings with access resistance>20 MΩ or that varied substantially were rejected from analysis.\nWe hypothesized that one target may be the number and properties of NMDA receptors at individual synapses."}, "[2]": {"test": "general status of treated rats", "settings": "chronic treatment in drinking water, 4 months"}, "GluR1": {"test_system": "GluR1", "test": "quantitative Western blotting of hippocampal homogenate", "type": "in vivo, rat", "settings": "baclofen 0.07 mg/kg/day in drinking water, 4 months; rats' hippocampus", "procedure": "(§1) Quantitative Western blotting. Samples of hippocampal homogenate (10 ug/sample) were resolved on polyacrylamide gels, transferred to PVDF, and probed with anti-NR1 (Chemicon), NR2A (Upstate) or NR2B (Santa Cruz Biotech), GluR1 (Chemicon), Synapsin1 (American Qualex), or PSD-95 (Upstate) antibody followed by the appropriate secondary antibody coupled to horseradish peroxidase (1:10,000, Santa Cruz Biotech) in Tris-buffered saline (pH 7.3) containing 5% dry milk and 0.1% Tween (BioRad). Visualization of immunoreactive bands was achieved by enhanced chemiluminescence (Perkin Elmer Biosciences) and captured on autoradiography film (Kodak Scientific). Standard curves, in which the amount of protein was varied systematically, were constructed to establish that we operated within the linear range of the chemiluminescence detection method. In addition, each immunoblot was exposed to autoradiography film multiple times (average 7; minimum 5) for varying duration to make sure we operated in the linear range of the film for each experiment. Digital images, produced by scanning films on a Epson 3200 Scanner (Epson) with Epson Scan Software (Epson), were quantified using GelPro Analyzer 3.1 software. The integrated optical density (IOD) of each immunoreactive band from hippocampal samples relative to baseline measured immediately above and below the band in the same lane, and normalized by the actin or neurofilament band also in the same lane. Group data (eight animals per group) are represented as the mean+/−SEM of the IOD of samples."}, "NR2B": {"test_system": "NR2B", "test": "quantitative Western blotting of hippocampal homogenate", "type": "in vivo, rat", "procedure": "as §1"}, "[3]": {"test_system": "excitatory and inhibitory terminals", "settings": "short treatment (2-24 hr)"}, "[4]": {"test_system": "presynaptic terminals of cultured hippocampal neurons", "test": "TBS-induced presynaptic plasticity measured by FM 1-43 dye uptake in hippocampal cultures", "type": "cell-based, rat"}}, "note": "“Also recorded” adds a separate entry of the source.", "data": [{"smiles": "NCC(CC(=O)O)c1ccc(Cl)cc1", "note": "(stereo not shown) [baclofen, 4-amino-3-(4-chlorophenyl) butanoic acid]", "values": [{"measurement": "τdecay of EPSCNMDA, representative trace", "setting": "[1]; baclofen-treated neurons, FIG. 7A", "value": 200, "unit": "ms"}, {"measurement": "τdecay of EPSCNMDA, average", "setting": "[1]; baclofen-treated neurons, N=6", "value": "176 ± 30", "unit": "ms"}, {"measurement": "ifenprodil-sensitivity of EPSCNMDA in treated versus control cultures", "setting": "[1]; ifenprodil 3 μM, baclofen 10 μM 6 hours or 1.2 mM Mg", "value": "triggered increased sensitivity of the EPSCNMDA to ifenprodil; also recorded: more sensitive to ifenprodil; also recorded: increases the sensitivity of EPSCNMDA to ifenprodil"}, {"measurement": "general status of the rats (body weight, mobility)", "setting": "[2]", "value": "did not observe any significant change in the general status"}, {"measurement": "GLUR1 expression level", "setting": "GluR1", "value": "significant enhancement; also recorded: increases expression level"}, {"measurement": "NR2B expression level", "setting": "NR2B; baclofen 0.07 mg/kg/day in drinking water, 4 months, rats' hippocampus", "value": "significant enhancement; also recorded: increases expression level"}, {"measurement": "increase in levels of NR2B protein", "setting": "NR2B; baclofen treatment (FIG. 10)", "value": "approximately 60%"}, {"measurement": "change of synaptic density", "setting": "[3]", "value": "No short treatment (2-24 hr, baclofen, nimodepine, NBQX, and TTX) produced a significant change of synaptic density"}, {"measurement": "effect of theta-burst induction in treated cultures", "setting": "[4]; 4-6 hours treatment, baclofen 20 μm, NBQX 1 μm, flunitrazepam 5 μm", "value": "Both the number of functional synapses and the probability of release increased"}, {"measurement": "plasticity of presynaptic terminals (S2/S1)", "setting": "[4]; baclofen 10 μM, short term (4-6 hours) and long term (48 hours)", "value": "induced enhancement of plasticity for both short term (4-6 hours) and long term (48 hours) periods of time; also recorded: enhances plasticity of presynaptic terminals"}]}]}
